Measurements published in patent US11083735B2, “Methods for treating sleep disorders, sleep disturbances, and related symptoms using aminosterol compositions” (Enterin, Inc., priority 2017, dated 2021).
Values joined by “and” are separate entries in the source; they are usually repeats but may differ in a detail not shown here. Identical values can stand only once.

Test system: elderly patient with a sleep disorder
Test: Example 1: person with sleep disturbance, oral squalamine (Kenterin), sleep diary and I-button wrist temperature
Format: in vivo, human
Conditions: for % Change in Hours: 125 qod
Experimental: An elderly patient with a sleep disorder was treated with squalamine to determine the efficacy of the drug for treating sleep disturbances. The patient was a person with a 10 year history of sleep disturbance and a history of constipation, anxiety, and anosmia for as long as they could remember. Their sleep was profoundly disturbed: they had difficulty falling asleep, awoke 3-4 times during the night, had vivid dreams and nightmares, spoke and screamed out loud during their sleep (REM-behavior disorder, RBD), often saw “apparitions” or people in the room (e.g., a cook in a top hat, priests and angels dressed in white). They slept with a night light on in an attempt to minimize these occurrences.
The patient was treated with oral squalamine (Kenterin™) starting at 100 mg qd and increasing to 200 mg qd. Sleep was monitored indirectly with the use of a temperature sensor (I-button) mounted on a wristband. The sensor was programed to record skin temperature at the wrist every 15 minutes 24 hrs a day. Data were downloaded every few weeks.
In other words, as the dose is increased, the hours of sleep increase, and as the dose was decreased, the hours of sleep decreased. The effect was immediate. Shown in FIG. 2 is the hours of sleep resulting following the following dosing schedule for squalamine: (1) 100 mg q.d., (2) 150 mg q.d., (3) 200 mg q.d., (4) 125 mg every third day, (5) 100 mg every third day, and (6) 125 mg q.o.d.
In other words, the patient was falling asleep more easily. […] Thus, not only does squalamine decrease delay in sleep onset and increase total sleep time, but it also has an effect on RBD and hallucinations, both of which occur as a result of Circadian rhythm dysfunction.

[1] = 100 mg q3d, days 81-83, daily values and mean
[2] = 100 mg q3d, days 81-83, daily values and mean, mean
[3] = 150 mg q3d, days 105-111, daily values and mean
[4] = 150 mg q3d, days 105-111, daily values and mean, mean
[5] = 150 mg qod, days 100-104, daily values and mean
[6] = 150 mg qod, days 100-104, daily values and mean, mean
[7] = days 53-55: 175/200 mg, daily values and Mean 200
[8] = days 53-55: 175/200 mg, daily values and Mean 200, mean

## CC(C)[C@@H](CC[C@@H](C)[C@H]1CC[C@H]2[C@@H]3[C@H](O)C[C@H]4C[C@@H](NCCCNCCCCN)CC[C@]4(C)[C@H]3CC[C@]12C)OS(=O)(=O)O [squalamine]
[1]
  Delay: 30 min
  Fragments awake: 40 min and 30 min
  Total hrs sleep: 6.75 h and 7 h
[2]
  Fragments awake: 36 min
  Total hrs sleep: 6.8 h
125 mg q3d, days 69-80, daily values and mean
  Delay: 20 min and 30 min
125 mg q3d, days 69-80, daily values and mean, mean
  Delay: 25 min
[3]
  Delay: 10 min and 15 min and 20 min
  Total hrs sleep: 10 h and 9.50 h and 8.75 h and 9.75 h and 8 h
[4]
  Delay: 14 min
  Total hrs sleep: 9.3 h
[5]
  Delay: 15 min and 20 min
  Total hrs sleep: 9 h and 8.5 h and 7.75 h and 10 h and 9.5 h
[6]
  Delay: 17 min
  Total hrs sleep: 8.95 h
100 qd
  % Change in Hours (from base): +5.3%
100 qd (mg), pre (0) 7.5
  Total hrs sleep: 7.9 h
125 qod (mg)
  Total hrs sleep: 8.7 h
From initial pre(0)
  % Change in Hours: +16% from initial pre(0);
From post (0)
  % Change in Hours: +24.3% from post (0)
150 qd
  % Change in Hours (from base): +17.3%
150 qd (mg)
  Total hrs sleep: 8.8 h
200 qd (mg), baseline 7.5
  Total hrs sleep: 9.1 h
Post (0)
  % Change in Hours (from base): −6.7%
Post (0), after discontinuation of squalamine
  Total hrs sleep: 7.0 h
After STOP, days 62-68, daily values and mean
  Fragments awake: 30 min and 20 min
After an appropriate dose of squalamine
  diurnal rhythm (I-button recording, FIG. 7): restored almost immediately
After intermittent treatment for several months
  diurnal rhythmicity (I-button, periodogram): some diurnal rhythmicity was restored
After the first week of treatment
  circadian rhythm (I-button, periodogram): still absent
Days 53-55: 175 mg (day 53), 200 mg (days 54-55), daily values and Mean 200
  Delay: 20 min
[7]
  Fragments awake: 15 min and 30 min
  Total hrs sleep: 9.0 h and 9.25 h
[8]
  Fragments awake: 20 min
  Total hrs sleep: 9.1 h
Off K, days 112-135, daily values and mean
  Total hrs sleep: 4.5 h
On treatment, reappeared when medication was discontinued
  RBD (vivid dreams and nightmares) and frank visual hallucinations: disappeared on treatment
